Tested on: EstSTR1
Assay type: biochemical, uncultured bacterium
Conditions: competitive against 100 μM cephalothin; 10 mM MES pH 6.8, bovine serum albumin 20 μg/ml, enzyme 396 μM as printed; stands in Km column, footnote gives Ki

Question: How did the “Km (μM) / Wild” value turn out when `CO/N=C(\C(=O)N[C@@H]1C(=O)N2C(C(=O)O)=C(COC(C)=O)CS[C@H]12)c1csc(N)n1` [TAX, cefotaxime] was run?
Answer: 0.90 ± 0.004 µM
